Measurements taken from US20120165409A1, “WRINKLE-IMPROVING AGENT” (SHISEIDO COMPANY, LTD., priority 2005, published 2012).

Tests used:
[1] = tested on: Hr-1 (Skh-1) hairless mice; test: Tests of wrinkle improvement on hairless mice (UVB-induced wrinkles); type: in vivo; conditions: 3% sample solution in 50% ethanol, 100 μL on back skin once a day, five times a week, versus solvent (50% ethanol), FIG. 1, statistically significant
Text: Wrinkles were formed on Hr-1 (Skh-1) hairless mice (age 6 to 10 weeks) according to a partly modified version of the method of Schwartz et al. (see Haratake A. et al. J. Invest. Dermatol., 108, 769-775, 1997), in which the mice were repeatedly irradiated with UVB (see Naganuma M. et al. J. Dermatol. Sci., 25, 29-35, 2001; Schwartz E. J. Invest. Dermatol. 91, 158-161, 1988). Specifically, the backs [of the mice] were irradiated with UVB (light source: Toshiba FL-20 SE fluorescent lamp, made by Toshiba Electric) three times a week for ten weeks. The amount of irradiation after the treatment commenced was 36 mJ/cm^2/irradiation. […] The total irradiation amount was 4.6 J/cm^2. Values for the amount of ultraviolet light were measured used a UV radiometer (UVR-305/365D(II), [made by] Topcon). [After] irradiation with ultraviolet light was completed, photographs were taken of the backs of the mice, and the degree of wrinkle generation was scored according to the wrinkle evaluation standards given below using a partially modified version of the method of Bissett et al. (see Bissett, D. L., et al. Photochemistry and Photobiology, 46, 367-378, 1987). Scores of 0, 2, 4, 6, and 8 were used as standard values, and 1, 3, 5, and 7 were used as intermediate scores. […]
The degree of wrinkle improvement of the mice was determined in the following manner. […]

[2] = tested on: healthy male panelists having a large number of wrinkles; test: Tests of improvement in wrinkles that form in the corners of the eyes (half-face blind test, replica analysis and survey); type: in vivo; conditions: 2.5 mass % in face lotion, human eye corners
Experimental: Face lotions (an example and a comparative example) having the compositions given below were applied three times a day using the half-face method (blind tests) to the faces of healthy male panelists having a large number of wrinkles.
Replicas of the eye corner portions to which lotion was applied were acquired using a SILFLO [apparatus] (Flexico Development Ltd.). The proportion of wrinkle area and the proportion of wrinkle volume were determined for before the application of the face lotion (0 M), after one month of application (1 M), and after two months of application (2 M). […] Both the wrinkle area proportion and the wrinkle volume proportion were determined by analyzing the replicas using a wrinkle-measuring apparatus employing a laser-cutting method (see Japanese Laid-Open Patent Application No. 7-113623).
The results of a survey concerning “Impressions of the Effectiveness of Wrinkle Improvement” sent to 23 test subjects are shown in Table 1.

In the case of O=C(O)CCNC(=O)c1ccccc1 [N-benzoyl-β-alanine], the “degree of wrinkle improvement (score before sample application − score after five weeks of sample application)” value [1] is reported as “reduction in wrinkles dramatically accelerated” and the “wrinkle-improving effect (overall conclusion of Example 2)” value [2] is reported as “had a wrinkle-improving effect”.
